The values below come from PubChem BioAssay (NCI).

Common to all, as to assay: DTP human tumour cell line panel, 48 h
Experiment [1] concerns 786-0 renal.
In experiment [2] the test system is ACHN renal.
The test system of experiment [3] is HCT-116 colon.
In experiment [4] the test system is HL-60(TB) leukemia.
Experiment [5] concerns IGROV1 ovarian.
For experiment [6], the system named is NCI-H226 lung.
Experiment [7] concerns RXF 393 renal.
For experiment [8], the system named is SF-539 CNS.
Experiment [9] concerns SK-MEL-28 melanoma.
For experiment [10], the system named is SK-OV-3 ovarian.

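Cells were grown in 96-well plates and exposed to each compound for 48 hours at five concentrations; endpoints were interpolated linearly between bracketing concentrations, or set to the highest concentration if not reached. GI50 is the concentration that inhibits growth by half. The concentration for full growth arrest is given as TGI.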 Bounds are passed on as bounds.

A word on the GI50: it is the concentration that inhibits growth by half. What is called TGI is the concentration giving total growth inhibition. Read a high TGI as less potent growth arrest. As for `c1ccc2c(c1)[I+]c1ccccc1-2`, the GI50 in [1] is over 50 µM; in [2], over 50 µM; in experiment [3], 38.4 µM; in experiment [4] it was over 50 µM; in [5], over 50 µM; in experiment [6], over 50 µM. Besides, the GI50 in experiment [7] was over 50 µM; in experiment [8] it was 40.6 µM; in [9] it was over 50 µM; in experiment [10], over 50 µM. Besides, the TGI in experiment [1], in experiment [2], in experiment [3], in [4], in [5] and in [6] was over 50 µM each time. Moreover, the concentration for total growth inhibition (TGI) in experiment [7], in experiment [8], in [9] and in [10] was over 50 µM throughout.
Take `COC(=O)c1c(-c2ccccc2)cc2c3cc(-c4ccccc4)c(C(=O)OC)n3c3ccccc3n12`: the TGI in experiment [1], in experiment [2], in experiment [3], in [4], in experiment [5] and in experiment [6] was over 100 µM in each case. The TGI in experiment [7] was over 94.7 µM; in experiment [8] it was over 100 µM; in [9] it was over 100 µM; in [10], over 100 µM.
`CC(C)=CC(C(O)c1ccccc1)S(=O)(=O)c1nccn1C` (centres undefined): the TGI in experiment [1], in experiment [2], in [3], in experiment [4], in [5] and in [6] was over 100 µM each time. For the same compound, the TGI in experiment [7], in experiment [8], in experiment [9] and in experiment [10] was over 100 µM in each case.
Turning to `COc1cc2c(cc1OCc1ccccc1)N=C[C@@H]1C/C(=C/C(=O)NCCCN3C(=O)c4cccc5cccc(c45)C3=O)CN1C2=O`, the 50% growth inhibitory concentration (GI50) in experiment [1] was 0.423 µM; in [2], 3.82 µM; in experiment [3], 0.538 µM; in experiment [4], 0.171 µM; in experiment [5], 0.468 µM; in experiment [6], 2.82 µM. Also, the GI50 is 0.231 µM in [7], 0.332 µM in experiment [8], 1.96 µM in experiment [9] and 8.35 µM in [10]. Besides, the concentration for total growth inhibition (TGI) is 11 µM in experiment [1]; over 61.4 µM in experiment [2]; over 100 µM in [3]; over 23.3 µM in [4]; over 100 µM in experiment [6]; 0.651 µM in experiment [7]. The TGI in [8] amounted to 1.47 µM; in experiment [9] it was 24.8 µM; in experiment [10], 33.5 µM.
Consider `C=CCCCCCCCCCCCC1CCC(CC)N1` (centres undefined), for which the TGI in experiment [1] worked out at 21.8 µM; in experiment [2] it was 31.1 µM; in experiment [3], 20.1 µM; in [4], 9.01 µM; in experiment [5], 25.9 µM; in [6], 49.1 µM. In addition, the TGI in experiment [7] was found to be 16.5 µM; in experiment [8] it was 25.3 µM; in [9] it was 29.6 µM; in [10], 31.6 µM.
On to `O=[N+]([O-])c1c(/C=N/Nc2ccccc2)oc(-c2ccc3c(c2)OCO3)c1-c1ccc2c(c1)OCO2`, for which the TGI was over 100 µM in [1]; over 100 µM in experiment [2]; over 100 µM in experiment [3]; 33.5 µM in experiment [4]; over 100 µM in experiment [5]; over 100 µM in experiment [6]. In addition, the TGI in experiment [7], in experiment [8], in [9] and in [10] was over 100 µM throughout.
For the compound `CCCCCCNC(=O)C1=C(C)NC(C)=C(C(=O)NCCCCCC)C1`, the TGI in experiment [1], in experiment [2], in experiment [3], in [4], in [5] and in experiment [6] was over 100 µM each time. The TGI in experiment [7], in experiment [8], in experiment [9] and in experiment [10] was over 100 µM in each case.
As to `O=C(O)C1CCc2ccc3ccccc3c2C1c1cccc2ccccc12` (centres undefined), the TGI in experiment [1] is 38.2 µM; in [2] it was over 100 µM; in experiment [3], 28.9 µM; in experiment [4], 62 µM; in experiment [5], 63.3 µM; in experiment [6], 60 µM. Moreover, the TGI in [7] is 39.6 µM; in experiment [8], 49.8 µM; in experiment [9], 39.5 µM; in experiment [10], over 100 µM.
With `CC(=O)O/N=C/c1ncccc1CO`, the TGI in experiment [1], in experiment [2], in experiment [3], in [4], in [5] and in [6] was over 100 µM each time. For the same compound, the TGI in experiment [7], in experiment [8], in experiment [9] and in experiment [10] was over 100 µM each time.
Consider `O=c1cc(-c2ccccc2)[nH]c2cccc(S)c12`, for which the TGI in experiment [1] was over 100 µM; in experiment [2] it was over 100 µM; in [3], over 100 µM; in experiment [4], over 100 µM; in experiment [5], over 100 µM; in experiment [6] it was 98.7 µM. In addition, the TGI in experiment [7] is 0.469 µM; in [8], 0.594 µM; in experiment [9] it was over 100 µM; in experiment [10], 26.1 µM.
With `CCCCNc1nc(NC(C)(C)C)nc(NC(C)(C)C)n1`, the GI50 was 30.7 µM in [1]; 6.41 µM in experiment [2]; 2.44 µM in [3]; 15.7 µM in experiment [4]; 16.3 µM in [5]; 6.44 µM in [6]. Moreover, the GI50 in experiment [7] was 8.07 µM; in experiment [8], 16.9 µM; in experiment [9], 30 µM; in [10], 19.4 µM. In addition, the TGI in experiment [1] is over 100 µM; in experiment [2] it was over 100 µM; in experiment [3], 29.6 µM; in [4], over 100 µM; in experiment [5], over 100 µM; in experiment [6], over 100 µM. For the same compound, the TGI is 76.9 µM in [7], over 100 µM in experiment [8], over 100 µM in [9] and over 100 µM in experiment [10].
